According to US7105577B2, “Antimicrobial method using a hydroxydiphenyl ether compound” (Ciba Specialty Chemicals Corporation, priority 1999, dated 2006):
Converted amounts (≈) assume the structure as drawn. Read-outs that look alike come from different tables or passages of the source.

Experiments:
Type in all cases: cell-based
[1] = system: Staphylococcus hominis DSM 20328; test: Agar incorporation test, MIC; settings: for MIC: DSM20328, Table 1, Staphylococcus hominis DSM 20328, agar incorporation, read-out: Minimum Inhibitory Concentration, SH
[2] = system: Staphylococcus aureus ATCC 6538; test: Agar incorporation test, MIC; settings: for MIC: ATCC6538
Excerpt: (§1) Medium: • Nutrient agar as test agar for bacteria: • Mueller hinton agar to cultivate the aerobic bacteria • Mueller hinton bouillon for obtaining the suspension of microorganisms • Ethanol as solvent • Wilkins-Chalgren agar to cultivate the […] bacteria • Sabouraud glucose agar to cultivate the dermatophytes
(§2) Examples of Test bacteria • Staphylococcus aureusATCC 6538 • Staphylococcus hominis DSM 20330 • Escherichia coli NCTC 8196 • Pseudomonas aeruginosa CIP A-22 • Candida albicans ATCC 10231 • Aspergillus niger ATCC 6275
(§3) Procedure: The test substances are dissolved in ethanol, and a dilution series of the compound of the formula (102) in agar are prepared. • Anaerobic bacteria and dermatophytes are activated on agar-plates, and washes off with Mueller-Hinton bouillon. Aerobic bacteria are activated in Mueller-Hinton bouillon overnight. The test germ suspension are diluted with Mueller-Hinton bouillon to a density of McFarland standard 0.5. • 10 μl of each germ suspension is dropped onto the agar plates containing the test substance, and the plates are then incubated at 37° C. for 2 days. (Aerobic bacteria are incubated at 36° C. for 72 hours, anaerobic bacteria are incubated at 30° C. for 72 hours). As controls, the bacterial suspensions are applied to agar plates without test substances.

[3] = system: Candida albicans ATCC 10231; test: Agar incorporation test, MIC; settings: for MIC: ATCC10231
Excerpt: as §1, §2, §3

[4] = system: Escherichia coli NCTC 8196; test: Agar incorporation test, MIC; settings: for MIC: NCTC8196
Excerpt: as §1, §2, §3

[5] = system: Pseudomonas aeruginosa CIP A-22; test: Agar incorporation test, MIC; settings: for MIC: CIPA22
Excerpt: as §1, §2, §3

[6] = system: Aspergillus niger ATCC 6275; test: Agar incorporation test, MIC; settings: Table 4
Excerpt: as §1, §2, §3

[7] = system: Actinomyces viscosum DSM 43329; test: Microbiological data (MIC); settings: Table 4
Method: as §1, §3
(§4) Microbiological data of the above compounds (MIC in ppm): […]

[8] = system: Corynebacterium minutissimum ATCC 23348; test: Microbiological data (MIC); settings: Table 4
Method: as §1, §3, §4

[9] = system: Corynebacterium xerosis ATCC 373/ATCC 7711; test: Microbiological data (MIC); settings: Table 4
Method: as §1, §3, §4

[10] = system: Epidermophyton floccosum CBS 55384; test: Microbiological data (MIC); settings: Table 4
Method: as §1, §3, §4

[11] = system: Porphyromonas gingivalis DSM 20709; test: Microbiological data (MIC); settings: Table 4
Method: as §1, §3, §4

[12] = system: Propionibacterium acnes ATCC 11829; test: Microbiological data (MIC); settings: Table 4
Method: as §1, §3, §4

[13] = system: Proteus vulgaris ATCC 6896; test: Microbiological data (MIC); settings: Table 4
Method: as §1, §3, §4

[14] = system: Selenomonas artemidis ATCC 43528; test: Microbiological data (MIC); settings: Table 4
Method: as §1, §3, §4

[15] = system: Staphylococcus epidermidis ATCC 12228; test: Microbiological data (MIC); settings: Table 4
Method: as §1, §3, §4

[16] = system: Streptococcus sobrinus DSM 20742; test: Microbiological data (MIC); settings: Table 4
Method: as §1, §3, §4

[17] = system: Trichophyton mentagrophytes ATCC 9553; test: Microbiological data (MIC); settings: Table 4
Method: as §1, §3, §4

[18] = system: Trichophyton rubrum DSM 4167; test: Microbiological data (MIC); settings: Table 4
Method: as §1, §3, §4

[19] = system: Malassezia furfur DSM 6171; test: Microbiological data (MIC); settings: DSM6171, Table 4
Method: as §1, §3, §4

[20] = Table 1, Staphylococcus aureus ATCC 6538, agar incorporation, read-out: Minimum Inhibitory Concentration, SA
[21] = Table 1, Candida albicans ATCC 10231, agar incorporation, read-out: Minimum Inhibitory Concentration, CA
[22] = Table 1, Escherichia coli NCTC 8196, agar incorporation, read-out: Minimum Inhibitory Concentration, EC
[23] = Table 1, Pseudomonas aeruginosa CIP A-22, agar incorporation, read-out: Minimum Inhibitory Concentration, PA

Q: For `Cc1ccc(C2CCCCC2)c(Oc2ccc(O)cc2)c1` [(119)], which MIC [1] is on record?
A: The MIC was 3 µg/mL (≈ 10.6 µM).

Q: And the MIC [2, 20]?
A: Its MIC is 3 µg/mL (≈ 10.6 µM).

Q: For `CC(C)CCc1ccc(Oc2ccc(O)cc2)cc1` [(120)], which MIC [1] is on record?
A: Its MIC is 4 µg/mL (≈ 15.6 µM).

Q: Which results are given for `Cc1ccc(C(C)(C)C)c(Oc2ccc(O)cc2)c1` [(121)]?
A: MIC [1]: 5 µg/mL (≈ 19.5 µM); MIC [3, 21]: 13 µg/mL (≈ 50.7 µM); MIC [2, 20]: 7 µg/mL (≈ 27.3 µM)

Q: With `Cc1ccc(C(C)C)cc1Oc1ccc(O)cc1` [(122)] as the molecule, how does the MIC [1] read?
A: Its MIC is 6 µg/mL (≈ 24.8 µM).

Q: And the MIC [3, 21]?
A: Its MIC is 13 µg/mL (≈ 53.6 µM).

Q: And the MIC [2, 20]?
A: The MIC was 6 µg/mL (≈ 24.8 µM).

Q: `Oc1ccc(Oc2ccc(CCc3ccccc3)cc2)cc1` [(123)] was tested. Which MIC [1] did it give?
A: Its MIC is 8 µg/mL (≈ 27.6 µM).

Q: `CCc1ccc(Oc2ccc(O)cc2)c(C(C)C)c1` [(124)] was tested. Which MIC [1] did it give?
A: The MIC was 8 µg/mL (≈ 31.2 µM).

Q: And the MIC [3, 21]?
A: Its MIC is 60 µg/mL (≈ 234 µM).

Q: With `CCCc1ccc(Oc2ccc(O)cc2)cc1` [(125)] as the molecule, how does the MIC [1] read?
A: Its MIC is 30 µg/mL (≈ 131 µM).

Q: And the MIC [3, 21]?
A: The MIC was 30 µg/mL (≈ 131 µM).

Q: What about the MIC [4, 22] of the same molecule?
A: Its MIC is 120 µg/mL (≈ 526 µM).

Q: Which MIC [1] does the source give for `CCc1ccc(Oc2ccc(O)cc2)cc1` [(126)] here?
A: Its MIC is 120 µg/mL (≈ 560 µM).

Q: What about the MIC [3, 21] of the same molecule?
A: The MIC was 120 µg/mL (≈ 560 µM).

Q: What about the MIC [4, 22] of the same molecule?
A: The MIC was 120 µg/mL (≈ 560 µM).

Q: What does the source list for `Oc1ccc(Oc2ccccc2)cc1` [(127)]?
A: MIC [3, 21]: 50 µg/mL (≈ 269 µM); MIC [4, 22]: 100 µg/mL (≈ 537 µM); MIC [5, 23]: 50 µg/mL (≈ 269 µM); MIC [2, 20]: 500 µg/mL (≈ 2690 µM)

Q: Which MIC [3, 21] does the source give for `Oc1ccc(Oc2ccc(C(F)(F)F)cc2)cc1` [(128)] here?
A: The MIC was 50 µg/mL (≈ 197 µM).

Q: What about the MIC [4, 22] of the same molecule?
A: The MIC was 50 µg/mL (≈ 197 µM).

Q: And the MIC [5, 23]?
A: The MIC was 50 µg/mL (≈ 197 µM).

Q: And the MIC [2, 20]?
A: The MIC was 50 µg/mL (≈ 197 µM).

Q: Which MIC [3, 21] does the source give for `Cc1ccc(C)c(Oc2ccc(O)cc2)c1` [(129)] here?
A: The MIC was 25 µg/mL (≈ 117 µM).

Q: What about the MIC [5, 23] of the same molecule?
A: Its MIC is 25 µg/mL (≈ 117 µM).

Q: And the MIC [2, 20]?
A: The MIC was 50 µg/mL (≈ 233 µM).

Q: For `CCCc1ccc(Oc2ccc(O)cc2)c(C(C)C)c1` [(130)], which MIC [3, 21] is on record?
A: Its MIC is 20 µg/mL (≈ 74 µM).

Q: And the MIC [5, 23]?
A: Its MIC is 20 µg/mL (≈ 74 µM).

Q: And the MIC [2, 20]?
A: Its MIC is 50 µg/mL (≈ 185 µM).

Q: Which “MIC, Staphylococcus hominis DSM 20328” value ([1]; Table 4) does the source give for `Cc1ccc(C(C)C)cc1Oc1ccc(O)cc1` [R1 = Me R2 = i-Propyl] here?
A: Its value is 6.25 ppm.

Q: And the “MIC, Aspergillus niger ATCC 6275” value [6]?
A: The value was 50 ppm.

Q: And the “MIC, Candida albicans ATCC 10231” value ([3]; Table 4)?
A: Its value is 12.5 ppm.

Q: What about the “MIC, Escherichia coli NCTC 8196” value ([4]; Table 4) of the same molecule?
A: Its value is >200 ppm.

Q: What about the “MIC, Pseudomonas aeruginosa CIP A-22” value ([5]; Table 4) of the same molecule?
A: Its value is >200 ppm.

Q: And the “MIC, Staphylococcus aureus ATCC 6538” value ([2]; Table 4)?
A: The value was 6.25 ppm.

Q: And the “MIC, Actinomyces viscosum DSM 43329” value [7]?
A: Its value is 80 ppm.

Q: And the “MIC, Corynebacterium minutissimum ATCC 23348” value [8]?
A: Its value is 6.25 ppm.

Q: What about the “MIC, Corynebacterium xerosis ATCC 373/ATCC 7711” value [9] of the same molecule?
A: Its value is 3.125 ppm.

Q: And the “MIC, Epidermophyton floccosum CBS 55384” value [10]?
A: The value was <3.125 ppm.

Q: What about the “MIC, Porphyromonas gingivalis DSM 20709” value [11] of the same molecule?
A: Its value is 5 ppm.

Q: And the “MIC, Propionibacterium acnes ATCC 11829” value [12]?
A: The value was 10 ppm.

Q: What about the “MIC, Proteus vulgaris ATCC 6896” value [13] of the same molecule?
A: Its value is >200 ppm.

Q: And the “MIC, Selenomonas artemidis ATCC 43528” value [14]?
A: The value was 10 ppm.

Q: What about the “MIC, Staphylococcus epidermidis ATCC 12228” value [15] of the same molecule?
A: Its value is 6.25 ppm.

Q: And the “MIC, Streptococcus sobrinus DSM 20742” value [16]?
A: Its value is 5 ppm.

Q: What about the “MIC, Trichophyton mentagrophytes ATCC 9553” value [17] of the same molecule?
A: The value was 6.25 ppm.

Q: What about the “MIC, Trichophyton rubrum DSM 4167” value [18] of the same molecule?
A: Its value is 5 ppm.

Q: Which results are given for `Cc1ccc(C)c(Oc2ccc(O)cc2)c1` [R1 = R2 = Me]?
A: MIC, Candida albicans ATCC 10231 ([3]; Table 4): 25.0 ppm; MIC, Escherichia coli NCTC 8196 ([4]; Table 4): >200 ppm; MIC, Pseudomonas aeruginosa CIP A-22 ([5]; Table 4): >200 ppm; MIC, Staphylococcus aureus ATCC 6538 ([2]; Table 4): 50.0 ppm; MIC, Corynebacterium minutissimum ATCC 23348 [8]: 25.0 ppm; MIC, Corynebacterium xerosis ATCC 373/ATCC 7711 [9]: 25.0 ppm; MIC, Proteus vulgaris ATCC 6896 [13]: >200 ppm; MIC, Staphylococcus epidermidis ATCC 12228 [15]: 25.0 ppm

Q: What does the source list for `Cc1ccc(C(C)(C)C)c(Oc2ccc(O)cc2)c1` [R1 = t-Butyl R2 = Me, 4-(2-t-Butyl-5-methylphenoxy)phenol]?
A: MIC ([6]; Aspergillus niger, ATCC6275, read-out: MIC, Aspergillus niger ATCC 6275): 6.75 µg/mL (≈ 26.3 µM); MIC ([3]; Candida albicans, Table 4, read-out: MIC, Candida albicans ATCC 10231): 12.5 µg/mL (≈ 48.8 µM); MIC ([4]; Escherichia coli, Table 4, read-out: MIC, Escherichia coli NCTC 8196): > 100 µg/mL; MIC ([5]; Pseudomonas aeruginosa, Table 4, read-out: MIC, Pseudomonas aeruginosa CIP A-22): > 100 µg/mL; MIC ([2]; Staphylococcus aureus, Table 4, read-out: MIC, Staphylococcus aureus ATCC 6538): 6.75 µg/mL (≈ 26.3 µM); MIC ([7]; Actinomyces, DSM43329): 5 µg/mL (≈ 19.5 µM); MIC ([8]; Corynebacterium minutissimum, ATCC23348): 3.4 µg/mL (≈ 13.3 µM); MIC ([9]; Corynebacterium xerosis): 3.4 µg/mL (≈ 13.3 µM); MIC ([10]; Epidermophyton floccosum, CBS55384): 1.65 µg/mL (≈ 6.44 µM); MIC [19]: 2.5 µg/mL (≈ 9.75 µM); MIC ([11]; Porphyromonas gingivalis, DSM20709): 1.25 µg/mL (≈ 4.88 µM); MIC ([12]; Cutibacterium acnes, ATCC11829): 5 µg/mL (≈ 19.5 µM); MIC ([13]; Proteus vulgaris, ATCC6896): > 100 µg/mL; MIC ([14]; Centipeda artemidis, ATCC43528): 5 µg/mL (≈ 19.5 µM); MIC ([15]; Staphylococcus epidermidis, ATCC12228): 3.4 µg/mL (≈ 13.3 µM); MIC ([16]; Streptococcus sobrinus, DSM20742): 5 µg/mL (≈ 19.5 µM); MIC ([17]; Trichophyton mentagrophytes, ATCC9553): 3.4 µg/mL (≈ 13.3 µM); MIC ([18]; Trichophyton rubrum, DSM4167): 10 µg/mL (≈ 39 µM)
